Measured values as given in patent US11472766B2, “Lipid nanoparticle composition” (Suzhou Abogen Biosciences Co., Ltd., priority 2020, dated 2022).

Assays:
[1] = system: human erythropoietin (hEPO) mRNA; experiment: Animal study: hEPO expression after tail vein injection of LNPs encapsulating hEPO mRNA (serum ELISA); type: in vivo; conditions: hEPO level, female ICR mice, 0.5 mg/kg, 6 hours post administration; for Expression at 6 h (μg/ml): class symbols, Table 3; for Expression at 6 h: Table 2
How it was run: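 Female ICR mice (6-8 weeks) received LNPs carrying hEPO mRNA by tail vein injection at 0.5 mg/kg, with MC3 LNPs dosed the same way as positive control. Blood was drawn at set times (e.g., 6 h) and serum separated. hEPO was quantified by ELISA and reported as μg/ml.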

[2] = Apparent pKa of LNP formulations (TNS fluorescence assay); conditions: LNP cationic lipid/DSPC/cholesterol/DMG-PEG 50/10/38.5/1.5 mol %
Experimental: The apparent pKa of each formulation was determined using an assay based on fluorescence of 2-(p-toluidino)-6-napthalene sulfonic acid (TNS). LNP formulations comprising of cationic lipid/DSPC/cholesterol/DMG-PEG (50/10/38.5/1.5 mol %) in PBS were prepared as described above. TNS was prepared as a 300 uM stock solution in distilled water. LNP formulations were diluted to 0.1 mg/ml total lipid in 3 mL of buffered solutions containing 50 mM sodium citrate, 50 mM sodium phosphate, 50 mM sodium borate, and 30 mM sodium chloride where the pH ranged from 3 to 9. An aliquot of the TNS solution was added to give a final concentration of 0.1 mg/ml and following vortex mixing fluorescence intensity was measured at room temperature in a Molecular Devices Spectramax iD3 spectrometer using excitation and mission wavelengths of 325 nm and 435 nm. A sigmoidal best fit analysis was applied to the fluorescence data and the pKa value was measured as the pH giving rise to half-maximal fluorescent intensity.

[3] = Lipid nanoparticle size by dynamic light scattering (Malvern Zetasizer Nano ZS); type: physicochemical; conditions: LNP: cationic lipid/DSPC/cholesterol/PEG-lipid 50:10:38.5:1.5, hEPO mRNA
How it was run: (§1)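 Lipids 50:10:38.5:1.5 (cationic:DSPC:chol:PEG) in EtOH + mRNA in citrate pH 4, 1:3 vol, microfluidic, 9–30 mL/min; total lipid:mRNA ~10:1–30:1 w/w. Dialysis to DPBS, 0.2 μm filter. DLS 173° backscatter; Ribogreen encapsulation.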

[4] = Encapsulation efficiency of lipid nanoparticles (Quant-it Ribogreen RNA quantification assay); type: physicochemical; conditions: LNP encapsulating hEPO mRNA
How it was run: as §1

Row | SMILES | Expression at 6 h (μg/ml) [1] | Apparant Pka ([2]; Table 3) | polydispersity ([3]; Table 3) | size nm ([3]; Table 3) [nm] | Encapsulation Efficiency ([4]; Table 3) [%] | Expression at 6 h [1] [µg/mL] | Apparant Pka ([2]; Table 2) | polydispersity ([3]; Table 2) | size nm ([3]; Table 2) [nm] | Encapsulation Efficiency ([4]; Table 2) [%]
1 | CCCCCCCCC(CCCCCC)COC(=O)CCCCCN(CCCCCC(=O)OCC(CCCCCC)CCCCCCCC)C(=O)CN(CCO)C1CCC1 (stereo not shown) [Compound 11] | D (<0.1) | 5.662 | 0.109 | 67.23 | 90.9 | – | – | – | – | –
2 | CCCCCCCCC(CCCCCCCC)COC(=O)CCCCCN(CCCCCC(=O)OCC(CCCCCCCC)CCCCCCCC)CCN(CCCC)C1CCC(O)CC1 (stereo not shown) [Compound 67] | B (≥1 and <2) | 6.341 | 0.05 | 64.75 | 79.3 | – | – | – | – | –
3 | CCCCCCCCC(CCCCCC)COC(=O)CCCCCN(CCCCCC(=O)OCC(CCCCCC)CCCCCCCC)CCN(CCCO)C1CCCCCC1 (stereo not shown) [Compound 10] | – | – | – | – | – | 0.79 | 5.83 | 0.113 | 69.2 | 96.0
4 | CCCCCCCCCCCOC(=O)CCCCCN(CCCCCC(=O)OCC(CCCCCCCC)CCCCCCCC)CCN(CCO)C1CC1 [Compound 80] | B (≥1 and <2) | 6.201 | 0.06 | 76.71 | 85.2 | – | – | – | – | –
5 | CCCCCCCCC(CCCCCCCC)COC(=O)CCCCCN(CCCCCC(=O)OCC(CCCCCCCC)CCCCCCCC)CCN(CCO)C1CC(F)(F)C1 [Compound 79] | C (≥0.1 and <1) | 5.735 | 0.154 | 52.19 | 89.2 | – | – | – | – | –
6 | CCCCCCCCC(CCCCCC)COC(=O)CCCCCN(CCCCCC(=O)OCC(CCCCCC)CCCCCCCC)CCN(CCO)C1CCOC1 (stereo not shown) [Compound 90] | B (≥1 and <2) | 6.6 | 0.067 | 72 | 97.3 | – | – | – | – | –
7 | CCCCCCCCC(CCCCCCCC)COC(=O)CCCCCN(CCCCCC(=O)OCC(CCCCCCCC)CCCCCCCC)CCN(CCC)C1CCC(O)CC1 (stereo not shown) [Compound 70] | A (≥2) | 6.381 | 0.034 | 77.54 | 84.3 | – | – | – | – | –
8 | CCCCCCCCC(CCCCCC)CNC(=O)CCCCCN(CCCCCC(=O)OCC(CCCCCC)CCCCCCCC)CCN(CCC)C1CCC(O)CC1 (stereo not shown) [Compound 133] | A (≥2) | 6.668 | 0.083 | 109.90 | 90.6 | – | – | – | – | –
9 | CCCCCCCCCCCOC(=O)CCCCCN(CCCCCC(=O)NCC(CCCCCCCC)CCCCCCCC)CCN(CCO)C1CCCCC1 [Compound 148] | A (≥2) | 7.146 | 0.046 | 83.84 | 85.6 | – | – | – | – | –
10 | CCCCCCCCC(CCCCCCCC)CC(=O)NCCCCCN(CCCCCOC(=O)CC(CCCCCCCC)CCCCCCCC)CCN(CCO)C1CCCCCC1 [Compound 145] | A (≥2) | 6.634 | 0.04 | 61.5 | 93.1 | – | – | – | – | –
11 | CCCCCCC(CCCCCC)CC(=O)NCCCCCN(CCCCCOC(=O)CC(CCCCCC)CCCCCC)CCN(CCO)C1CCCCCC1 [Compound 142] | A (≥2) | 6.678 | 0.027 | 81.13 | 85.3 | – | – | – | – | –
12 | CCCCCCCCC(CCCCCC)COC(=O)CCCCCN(CCCCCC(=O)OCC(CCCCCC)CCCCCCCC)CCN(CCO)C1CC(O)C1 (stereo not shown) [Compound 22] | D (<0.1) | 6.884 | 0.081 | 71.2 | 98.3 | – | – | – | – | –
13 | CCCCCCC(CCCCCC)CC(=O)NCCCCCN(CCCCCOC(=O)CC(CCCCCC)CCCCCC)CCN(CCO)C1CC1 [Compound 153] | A (≥2) | 6.621 | 0.059 | 107.4 | 85.5 | – | – | – | – | –
14 | CCCCCCCCC(CCCCCC)CC(=O)NCCCCCN(CCCCCNC(=O)CC(CCCCCC)CCCCCCCC)CCN(CCO)C1CCCC1 (stereo not shown) [Compound 114] | A (≥2) | 6.695 | 0.025 | 87.92 | 89.3 | – | – | – | – | –
15 | CCCCCCCCC(CCCCCC)C(C)OC(=O)CCCCCN(CCCCCC(=O)OC(C)C(CCCCCC)CCCCCCCC)CCN(CCO)C1CCC1 (stereo not shown) [Compound 38] | C (≥0.1 and <1) | 6.172 | 0.167 | 65.94 | 98.7 | – | – | – | – | –
16 | CCCCCCCCC(CCCCCC)COC(=O)CCCCCN(CCCCCC(=O)OCC(CCCCCC)CCCCCCCC)CCN(CCCCO)C1CCC1 (stereo not shown) [Compound 29] | A (≥2) | 6.477 | 0.078 | 85.17 | 97.2 | – | – | – | – | –
17 | CCCCCCCCC(CCCCCCCC)COC(=O)CCOCCN(CCOCCC(=O)OCC(CCCCCCCC)CCCCCCCC)CCN(CCO)C1CCC1 [Compound 102] | B (≥1 and <2) | 6.406 | 0.004 | 70.49 | 94.10 | – | – | – | – | –
18 | CCCCCCC(CCCCCC)CNC(=O)CCCCCN(CCCCCC(=O)OCC(CCCCCC)CCCCCC)CCN(CCO)C1CCCCCC1 [Compound 141] | A (≥2) | 6.766 | 0.036 | 71.93 | 89.1 | – | – | – | – | –
19 | CCCCCCC(CCCCCC)CC(=O)NCCCCCN(CCCCCOC(=O)CC(CCCCCC)CCCCCC)CCN(CCO)C1CCCC1 [Compound 154] | A (≥2) | 6.836 | 0.068 | 104.8 | 88.4 | – | – | – | – | –
20 | CCCCCCCCC(CCCCCC)COC(=O)CCCCCN(CCCCCC(=O)OCC(CCCCCC)CCCCCCCC)CCN(CCO)c1ccccc1 (stereo not shown) [Compound 7] | – | – | – | – | – | 0.00 | 5.39 | 0.110 | 149.1 | 47.0
21 | CCCCCCCCCCCOC(=O)CCCCCN(CCCCCC(=O)NCC(CCCCCCCC)CCCCCCCC)CCN(CCO)C1CCCC1 [Compound 147] | A (≥2) | 7.304 | 0.082 | 69.58 | 91.4 | – | – | – | – | –
22 | CCCCCCCCC(O)CN(CCN(CCCCCC(=O)OCC(CCCCCC)CCCCCCCC)CCCCCC(=O)OCC(CCCCCC)CCCCCCCC)C1CCC1 (stereo not shown) [Compound 34] | D (<0.1) | 5.29 | 0.095 | 63.32 | 96.1 | – | – | – | – | –
23 | CCCCCCCCC(CCCCCC)COC(=O)CCCCCN(CCCCCC(=O)OCC(CCCCCC)CCCCCCCC)CCN(C(=O)CCO)C1CCC1 (stereo not shown) [Compound 8] | – | – | – | – | – | 0.00 | 5.84 | 0.065 | 54.7 | 96.9
